Data taken from US20240228489A1, “POSITIVE ALLOSTERIC MODULATORS OF THE MUSCARINIC ACETYLCHOLINE RECEPTOR M1” (Vanderbilt University, priority 2021, published 2024).
pEC50: −log10 of the molar value.

What was measured:
human mAChR M1 [1] = biological target: T1, human mAChR M1 (Homo sapiens, UniProt P11229); assay: mAChR M1 cell-based functional assay (calcium mobilization), PAM mode: increase in the EC20 acetylcholine response
T1 sequence (P11229 1-460): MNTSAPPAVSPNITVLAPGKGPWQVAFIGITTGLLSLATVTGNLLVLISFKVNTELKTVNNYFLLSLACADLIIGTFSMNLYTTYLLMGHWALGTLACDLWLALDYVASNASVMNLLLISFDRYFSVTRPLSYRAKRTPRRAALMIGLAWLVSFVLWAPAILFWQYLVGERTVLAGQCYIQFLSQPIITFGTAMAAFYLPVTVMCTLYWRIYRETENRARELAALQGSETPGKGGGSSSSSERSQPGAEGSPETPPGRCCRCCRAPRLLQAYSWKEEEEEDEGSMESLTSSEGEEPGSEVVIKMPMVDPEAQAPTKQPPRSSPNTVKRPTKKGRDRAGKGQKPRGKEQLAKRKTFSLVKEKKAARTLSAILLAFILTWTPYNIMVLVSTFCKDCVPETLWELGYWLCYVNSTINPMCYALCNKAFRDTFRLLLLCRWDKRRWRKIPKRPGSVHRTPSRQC
Outline: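 PAM readout is the concentration-dependent rise in the EC20 acetylcholine calcium signal, fitted to a four-parameter logistic (EC50, Emax). Compounds were preincubated from 4 s before ACh at 144 s (EC20) and 230 s (EC80). hM1-expressing CHO-K1 cells loaded with Fluo-4, FDSS ratio read.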

human mAChR M1 [2] = biological target: T1, human mAChR M1; assay: mAChR M1 cell-based functional assay (calcium mobilization), agonist mode: compound alone, Emax relative to acetylcholine maximum; details: for pEC50: human mAChR M1; for Emax: relative to the maximum for acetylcholine
Outline: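 Agonist activity is the concentration-dependent rise in intracellular calcium (Fluo-4, 1 Hz read) after compound addition, measured before any acetylcholine was added, in stable hM1 CHO-K1 cells. Curves were 11-point, 1:3 dilutions fitted by four-parameter logistic. Emax is given as a fraction of maximal acetylcholine response.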

Row | Compound | pEC50 (human mAChR M1 [1]) | Emax (human mAChR M1 [1]) [%] | pEC50 (human mAChR M1 [2]) | Emax (human mAChR M1 [2]) [%]
1 | [2H]C1([2H])c2ncccc2C(=O)N1Cc1c(F)cc(-c2ccc(O)c3nn(C([2H])([2H])[2H])cc23)cc1F [Compound 132, 6-(2,6-difluoro-4-(7-hydroxy-2-(methyl-d3)-2H-indazol-4-yl)benzyl)-6,7-dihydro-5H-pyrrolo[3,4-b]pyridin-5-one-7,7-d2] | 6.71 | 77 | 5.10 | 47
2 | [2H]C1([2H])c2ncccc2C(=O)N1Cc1c(F)cc(-c2ccc(OC(C)COC)c3nn(C)cc23)cc1F (stereo not drawn) [Compound 133, 6-(2,6-difluoro-4-(7-((1-methoxypropan-2-yl)oxy)-2-methyl-2H-indazol-4-yl)benzyl)-6,7-dihydro-5H-pyrrolo[3,4-b]pyridin-5-one-7,7-d2] | 6.31 | 79 | ≤ 5.00 | 35
3 | [2H]C1([2H])c2ncccc2C(=O)N1Cc1c(F)cc(-c2ccc(OCC3CCCO3)c3nn(C)cc23)cc1F (stereo not drawn) [Compound 134, 6-(2,6-difluoro-4-(2-methyl-7-((tetrahydrofuran-2-yl)methoxy)-2H-indazol-4-yl)benzyl)-6,7-dihydro-5H-pyrrolo[3,4-b]pyridin-5-one-7,7-d2] | 6.15 | 75 | ≤ 5.00 | 23
4 | [2H]C1([2H])c2ncccc2C(=O)N1Cc1c(F)cc(-c2ccc(OCC3CCO3)c3nn(C)cc23)cc1F (stereo not drawn) [Compound 135, 6-(2,6-difluoro-4-(2-methyl-7-(oxetan-2-ylmethoxy)-2H-indazol-4-yl)benzyl)-6,7-dihydro-5H-pyrrolo[3,4-b]pyridin-5-one-7,7-d2] | 6.39 | 78 | 5.12 | 26
5 | [2H]C1([2H])c2ncccc2C(=O)N1Cc1c(F)cc(-c2ccc(O[C@H]3CCOC3)c3nn(C)cc23)cc1F [Compound 136, (S)-6-(2,6-difluoro-4-(2-methyl-7-((tetrahydrofuran-3-yl)oxy)-2H-indazol-4-yl)benzyl)-6,7-dihydro-5H-pyrrolo[3,4-b]pyridin-5-one-7,7-d2] | 6.61 | 74 | 5.07 | 28
6 | [2H]C1([2H])c2ncccc2C(=O)N1Cc1c(F)cc(-c2ccc(O[C@@H]3CCOC3)c3nn(C)cc23)cc1F [Compound 137, (R)-6-(2,6-difluoro-4-(2-methyl-7-((tetrahydrofuran-3-yl)oxy)-2H-indazol-4-yl)benzyl)-6,7-dihydro-5H-pyrrolo[3,4-b]pyridin-5-one-7,7-d2] | 6.59 | 74 | 5.10 | 53
7 | [2H]C1([2H])c2ncccc2C(=O)N1Cc1c(F)cc(-c2ccc(OCC3CC3)c3nn(C)cc23)cc1F [Compound 138, 6-(4-(7-(cyclopropylmethoxy)-2-methyl-2H-indazol-4-yl)-2,6-difluorobenzyl)-6,7-dihydro-5H-pyrrolo[3,4-b]pyridin-5-one-7,7-d2] | 6.08 | 75 | ≤ 5.00 | 11
8 | [2H]C1([2H])c2ncccc2C(=O)N1Cc1c(F)cc(-c2ccc(OC3COC3)c3nn(C)cc23)cc1F [Compound 139, 6-(2,6-difluoro-4-(2-methyl-7-(oxetan-3-yloxy)-2H-indazol-4-yl)benzyl)-6,7-dihydro-5H-pyrrolo[3,4-b]pyridin-5-one-7,7-d2] | 6.73 | 75 | 5.30 | 36
9 | [2H]C1([2H])c2ncccc2C(=O)N1Cc1c(F)cc(-c2ccc(OC3CCOCC3)c3nn(C)cc23)cc1F [Compound 140, 6-(2,6-difluoro-4-(2-methyl-7-((tetrahydro-2H-pyran-4-yl)oxy)-2H-indazol-4-yl)benzyl)-6,7-dihydro-5H-pyrrolo[3,4-b]pyridin-5-one-7,7-d2] | 6.54 | 72 | 5.09 | 54
10 | [2H]C1([2H])c2ncc(O)cc2C(=O)N1Cc1c(F)cc(-c2cccc3nn(C([2H])([2H])[2H])cc23)cc1F [Compound 141, 6-(2,6-difluoro-4-(2-(methyl-d3)-2H-indazol-4-yl)benzyl)-3-hydroxy-6,7-dihydro-5H-pyrrolo[3,4-b]pyridin-5-one-7,7-d2] | 6.91 | 73 | 5.10 | 50
11 | [2H]C([2H])([2H])Oc1cnc2c(c1)C(=O)N(Cc1ccc(-c3ccc(OC)c4nn(C)cc34)cc1F)C2([2H])[2H] [Compound 142, 6-(2-fluoro-4-(7-methoxy-2-methyl-2H-indazol-4-yl)benzyl)-3-(methoxy-d3)-6,7-dihydro-5H-pyrrolo[3,4-b]pyridin-5-one-7,7-d2] | 6.67 | 81 | 5.22 | 13
12 | [2H]C1([2H])c2ncccc2C(=O)N1Cc1ccc(-c2ccc(OC(C)COC)c3nn(C)cc23)cc1F (stereo not drawn) [Compound 143, 6-(2-fluoro-4-(7-((1-methoxypropan-2-yl)oxy)-2-methyl-2H-indazol-4-yl)benzyl)-6,7-dihydro-5H-pyrrolo[3,4-b]pyridin-5-one-7,7-d2] | 5.90 | 74 | ≤ 5.00 | 15
13 | [2H]C1([2H])c2ncccc2C(=O)N1Cc1ccc(-c2ccc(O[C@H]3CCOC3)c3nn(C)cc23)cc1F [Compound 144, (S)-6-(2-fluoro-4-(2-methyl-7-((tetrahydrofuran-3-yl)oxy)-2H-indazol-4-yl)benzyl)-6,7-dihydro-5H-pyrrolo[3,4-b]pyridin-5-one-7,7-d2] | 6.12 | 75 | ≤ 5.00 | 18
14 | [2H]C1([2H])c2ncccc2C(=O)N1Cc1ccc(-c2ccc(OCC3CCO3)c3nn(C)cc23)cc1F (stereo not drawn) [Compound 145, 6-(2-fluoro-4-(2-methyl-7-(oxetan-2-ylmethoxy)-2H-indazol-4-yl)benzyl)-6,7-dihydro-5H-pyrrolo[3,4-b]pyridin-5-one-7,7-d2] | 5.97 | 73 | ≤ 5.00 | 16
15 | [2H]C([2H])([2H])Oc1cnc2c(c1)C(=O)N(Cc1c(F)cc(-c3ccc(OC)c4nn(C)cc34)cc1F)C2([2H])[2H] [Compound 146, 6-(2,6-difluoro-4-(7-methoxy-2-methyl-2H-indazol-4-yl)benzyl)-3-(methoxy-d3)-6,7-dihydro-5H-pyrrolo[3,4-b]pyridin-5-one-7,7-d2] | 6.75 | 79 | 5.33 | 28
16 | [2H]C1([2H])c2ncccc2C(=O)N1Cc1ccc(-c2ccc(OCC3CCCO3)c3nn(C)cc23)cc1F (stereo not drawn) [Compound 147, 6-(2-fluoro-4-(2-methyl-7-((tetrahydrofuran-2-yl)methoxy)-2H-indazol-4-yl)benzyl)-6,7-dihydro-5H-pyrrolo[3,4-b]pyridin-5-one-7,7-d2] | 5.96 | 79 | ≤ 5.00 | 12
17 | [2H]C1([2H])c2ncccc2C(=O)N1Cc1c(F)cc(-c2ccc(O[C@H](C)COC)c3nn(C)cc23)cc1F [Compound 148, (R)-6-(2,6-difluoro-4-(7-((1-methoxypropan-2-yl)oxy)-2-methyl-2H-indazol-4-yl)benzyl)-6,7-dihydro-5H-pyrrolo[3,4-b]pyridin-5-one-7,7-d2] | 6.27 | 81 | ≤ 5.00 | 31
18 | [2H]C1([2H])c2ncccc2C(=O)N1Cc1c(F)cc(-c2ccc(OCCOC(C)C)c3nn(C)cc23)cc1F [Compound 149, 6-(2,6-difluoro-4-(7-(2-isopropoxyethoxy)-2-methyl-2H-indazol-4-yl)benzyl)-6,7-dihydro-5H-pyrrolo[3,4-b]pyridin-5-one-7,7-d2] | 6.14 | 77 | ≤ 5.00 | 26
19 | [2H]C1([2H])c2ncccc2C(=O)N1Cc1c(F)cc(-c2ccc(OCCOC3CC3)c3nn(C)cc23)cc1F [Compound 150, 6-(4-(7-(2-cyclopropoxyethoxy)-2-methyl-2H-indazol-4-yl)-2,6-difluorobenzyl)-6,7-dihydro-5H-pyrrolo[3,4-b]pyridin-5-one-7,7-d2] | 6.11 | 80 | ≤ 5.00 | 22
20 | [2H]C1([2H])c2ncccc2C(=O)N1Cc1ccc(-c2ccc(O[C@@H]3CCOC3)c3nn(C)cc23)cc1F [Compound 151, (R)-6-(2-fluoro-4-(2-methyl-7-((tetrahydrofuran-3-yl)oxy)-2H-indazol-4-yl)benzyl)-6,7-dihydro-5H-pyrrolo[3,4-b]pyridin-5-one-7,7-d2] | 6.16 | 76 | ≤ 5.00 | 22
21 | [2H]C1([2H])c2ncccc2C(=O)N1Cc1ccc(-c2ccc(O[C@@H](C)COC)c3nn(C)cc23)cc1F [Compound 152, (S)-6-(2-fluoro-4-(7-((1-methoxypropan-2-yl)oxy)-2-methyl-2H-indazol-4-yl)benzyl)-6,7-dihydro-5H-pyrrolo[3,4-b]pyridin-5-one-7,7-d2] | 6.19 | 80 | ≤ 5.00 | 27
